IC50 and EC50 data for 13 molecules are collected here from US20250368627A1, “PYRAZOLESULFONAMIDES AS ANTITUMOR AGENTS” (Peloton Therapeutics, Inc., a fully owned subsidiary of …, priority 2019, published 2025).

Experiment [1] has as its target T1, DDB1DB/DCAF15 and RBM39 R1R2 complex (Homo sapiens, UniProt Q14498+Q66K64).
T1 construct: Amino acids 150 to 331 of RBM39 were cloned into pGEX4T3; GST (from vector pGEX4T3); TEV cleavage site (N); made in house; host or cells: DDB1DB/His-DCAF15: baculovirus/Sf9 co-expression; RBM39 R1R2: E. coli (pGEX4T3)
Kind of experiment: DCAF15 RBM39 Complex Formation Assay (FRET). In kind it is binding. Conditions: FRET ratio Em 665/Em 615, incubated overnight at 4° C. Put shortly: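 Ternary complex formation read by TR-FRET (Em 665/615, excitation 340 nm) after overnight incubation at 4° C of 20 nM baculovirus DDB1DB/His-DCAF15 and 50 nM E. coli RBM39 RRM1-RRM2 FLAG fragment with 14-point, 3-fold compound dilutions from 1 μM; EC50 from 4-parameter fit.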

Experiment [2] relates to HCT116 human colorectal carcinoma cells. In words: CellTiter-Glo Luminescent Cell Viability Assay. Conditions: HCT-116, 72 h, 3 days. In kind it is cell-based. The procedure, abridged:
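CellTiter-Glo luminescence gave viability after 3 days of compound exposure in HCT116 cells grown in DMEM/10% FBS. Final concentrations ran from 5 to 0.0002 […] in 1:3 steps, each in triplicate, with IC50 derived from the curves.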

Some results are limits rather than exact numbers.

T1 sequence (Q66K64 whole entry, the tested form may be a part): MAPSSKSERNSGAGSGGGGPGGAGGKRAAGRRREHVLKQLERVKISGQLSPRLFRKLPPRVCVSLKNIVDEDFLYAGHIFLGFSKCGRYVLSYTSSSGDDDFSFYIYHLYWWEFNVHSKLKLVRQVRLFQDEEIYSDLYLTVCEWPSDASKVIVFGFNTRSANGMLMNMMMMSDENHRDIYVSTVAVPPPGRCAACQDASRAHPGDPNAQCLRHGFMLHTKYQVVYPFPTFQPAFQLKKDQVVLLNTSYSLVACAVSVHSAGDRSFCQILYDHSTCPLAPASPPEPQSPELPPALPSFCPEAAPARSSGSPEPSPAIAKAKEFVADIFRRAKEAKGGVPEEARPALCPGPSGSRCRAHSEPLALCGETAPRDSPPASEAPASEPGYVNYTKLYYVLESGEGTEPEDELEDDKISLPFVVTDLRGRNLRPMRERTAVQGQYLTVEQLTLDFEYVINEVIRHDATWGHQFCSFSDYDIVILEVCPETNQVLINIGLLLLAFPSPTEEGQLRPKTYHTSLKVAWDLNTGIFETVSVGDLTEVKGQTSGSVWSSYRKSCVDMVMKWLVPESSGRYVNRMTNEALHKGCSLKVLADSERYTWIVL
T1 sequence (Q14498 150-331): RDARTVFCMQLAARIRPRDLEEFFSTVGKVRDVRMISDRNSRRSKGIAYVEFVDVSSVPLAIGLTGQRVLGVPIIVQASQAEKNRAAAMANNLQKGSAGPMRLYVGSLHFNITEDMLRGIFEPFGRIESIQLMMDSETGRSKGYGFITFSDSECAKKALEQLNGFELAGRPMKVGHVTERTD
T1 sequence (Q16531 with tags, fused parts or gaps DEL396-708 partner): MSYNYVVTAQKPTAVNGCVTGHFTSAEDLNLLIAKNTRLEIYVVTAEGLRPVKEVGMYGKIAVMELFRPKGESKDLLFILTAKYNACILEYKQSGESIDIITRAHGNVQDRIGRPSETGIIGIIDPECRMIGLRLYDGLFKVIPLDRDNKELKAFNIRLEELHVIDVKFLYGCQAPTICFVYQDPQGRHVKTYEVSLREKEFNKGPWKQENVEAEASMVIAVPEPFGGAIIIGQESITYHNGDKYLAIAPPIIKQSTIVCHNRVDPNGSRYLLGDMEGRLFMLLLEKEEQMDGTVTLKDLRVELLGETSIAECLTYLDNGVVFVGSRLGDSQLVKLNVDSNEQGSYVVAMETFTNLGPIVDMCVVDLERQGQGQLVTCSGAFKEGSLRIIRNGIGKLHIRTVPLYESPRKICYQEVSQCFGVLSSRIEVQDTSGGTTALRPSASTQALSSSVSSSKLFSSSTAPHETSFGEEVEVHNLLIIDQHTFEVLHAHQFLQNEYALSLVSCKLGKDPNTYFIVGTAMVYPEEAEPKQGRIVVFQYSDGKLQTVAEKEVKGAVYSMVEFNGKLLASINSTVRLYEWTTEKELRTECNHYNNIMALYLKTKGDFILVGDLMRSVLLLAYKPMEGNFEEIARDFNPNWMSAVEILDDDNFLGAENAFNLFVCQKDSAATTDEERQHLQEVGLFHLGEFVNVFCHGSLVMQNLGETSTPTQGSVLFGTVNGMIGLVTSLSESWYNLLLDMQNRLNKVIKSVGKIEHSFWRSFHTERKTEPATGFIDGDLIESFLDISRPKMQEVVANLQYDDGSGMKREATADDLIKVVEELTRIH

In general, IC50 refers to the concentration that inhibits the measured activity by half. A word on the EC50: it is the midpoint of the concentration-response curve. As to `C[C@@H](O)[C@H](C)n1cc(S(=O)(=O)Nc2ccc(F)c3c(C#N)c[nH]c23)cn1` [Compound 233, N-(3-cyano-4-fluoro-1H-indol-7-yl)-1-[(1S,2R)-2-hydroxy-1-methyl-propyl]pyrazole-4-sulfonamide], the IC50 in experiment [1] is less than 250 nM. For the same molecule, the EC50 in experiment [2] lay within 250 to 1000 nM.

Take `N#Cc1c[nH]c2c(NS(=O)(=O)c3cnn([C@H]4CNC[C@H]4F)c3)ccc(Cl)c12` [Compound 152, N-(4-chloro-3-cyano-1H-indol-7-yl)-1-[(3S,4R)-4-fluoropyrrolidin-3-yl]pyrazole-4-sulfonamide]: the IC50 in experiment [1] was less than 250 nM. The concentration giving a half-maximal response (EC50) in experiment [2] is more than 1000 nM.

Take `CC(C)(C)OC(=O)N1CCC(n2cc(S(=O)(=O)Nc3cccc4c(Cl)c[nH]c34)cn2)CC1` [Compound 26, tert-butyl 4-[4-[(3-chloro-1H-indol-7-yl)sulfamoyl]pyrazol-1-yl]piperidine-1-carboxylate]: the IC50 in experiment [1] was less than 250 nM. For the same molecule, the half-maximal effective concentration (EC50) in experiment [2] is more than 1000 nM.

With `Cc1ccc(NS(=O)(=O)c2cnn(CC(=O)O)c2)c2[nH]cc(C#N)c12` [Compound 134, 2-[4-[(3-cyano-4-methyl-1H-indol-7-yl)sulfamoyl]pyrazol-1-yl]acetic acid], the IC50 in experiment [1] was less than 250 nM. Moreover, the EC50 in experiment [2] was more than 1000 nM.

Turning to `O=S(=O)(Nc1cccc2c(Cl)c[nH]c12)c1cnn(-c2ccc(F)cn2)c1` [Compound 21, N-(3-chloro-1H-indol-7-yl)-1-(5-fluoro-2-pyridyl)pyrazole-4-sulfonamide], the IC50 in experiment [1] lay within 250 to 1000 nM. Also, in experiment [2], the EC50 was more than 1000 nM.

For the molecule `N#Cc1c[nH]c2c(NS(=O)(=O)c3cnn(CC(F)F)c3N)ccc(Cl)c12` [Compound 278, 5-amino-N-(4-chloro-3-cyano-1H-indol-7-yl)-1-(2,2-difluoroethyl)pyrazole-4-sulfonamide], the IC50 in experiment [1] was less than 250 nM. Further, in experiment [2], the EC50 is less than 250 nM.

Take `Cc1ccc(NS(=O)(=O)c2cnn(CC(C)(C)O)c2N)c2[nH]cc(C#N)c12` [Compound 283, 5-amino-N-(3-cyano-4-methyl-1H-indol-7-yl)-1-(2-hydroxy-2-methyl-propyl)pyrazole-4-sulfonamide]: in experiment [1], the IC50 is less than 250 nM. For the same molecule, the EC50 in experiment [2] lay in the range of 250 to 1000 nM.

Regarding `Cc1ccc(NS(=O)(=O)c2cnn(CC3(CO)COC3)c2)c2[nH]cc(C#N)c12` [Compound 106, N-(3-cyano-4-methyl-1H-indol-7-yl)-1-[[3-(hydroxymethyl)oxetan-3-yl]methyl]pyrazole-4-sulfonamide], the half-inhibitory concentration (IC50) in experiment [1] was less than 250 nM. The EC50 in experiment [2] lay within 250 to 1000 nM.

As to `CC(C)(O)Cn1cc(S(=O)(=O)Nc2ccc(Cl)c3c(C#N)c[nH]c23)c(F)n1` [Compound 204, N-(4-chloro-3-cyano-1H-indol-7-yl)-3-fluoro-1-(2-hydroxy-2-methyl-propyl)pyrazole-4-sulfonamide], in experiment [1], the IC50 is less than 250 nM. Moreover, in experiment [2], the EC50 was more than 1000 nM.

With `Cc1ccc(NS(=O)(=O)c2cnn(CC(F)F)c2)c2[nH]cc(C#N)c12` [Compound 66, N-(3-cyano-4-methyl-1H-indol-7-yl)-1-(2,2-difluoroethyl)pyrazole-4-sulfonamide], the IC50 in experiment [1] was less than 250 nM. Further, the EC50 in experiment [2] was less than 250 nM.

`Cc1ccc(NS(=O)(=O)c2cnn(C3CC(F)(F)C3)c2)c2[nH]cc(C#N)c12` [Compound 109, N-(3-cyano-4-methyl-1H-indol-7-yl)-1-(3,3-difluorocyclobutyl)pyrazole-4-sulfonamide]: the IC50 in experiment [1] was less than 250 nM. In addition, in experiment [2], the EC50 lay within 250 to 1000 nM.

On to `Cc1ccc(NS(=O)(=O)c2cnn(C(C)(C)CO)c2Cl)c2[nH]cc(C#N)c12` [Compound 244, 5-chloro-N-(3-cyano-4-methyl-1H-indol-7-yl)-1-(2-hydroxy-1,1-dimethyl-ethyl)pyrazole-4-sulfonamide], for which the IC50 in experiment [1] was less than 250 nM. Further, in experiment [2], the EC50 is less than 250 nM.

Turning to `Cn1cc(S(=O)(=O)Nc2ccc(C(F)(F)F)c3c(Cl)c[nH]c23)cn1` [Compound 97, N-[3-chloro-4-(trifluoromethyl)-1H-indol-7-yl]-1-methyl-pyrazole-4-sulfonamide], in experiment [1], the IC50 was less than 250 nM. Besides, the EC50 in experiment [2] was more than 1000 nM.
